Experiments:
Experiment in all cases: relative viability (nuclei count vs DMSO), 5 days (fraction); higher = more cells survive
Zosuquidar + Navitoclax = compound: O[C@@H](COc1cccc2ncccc12)CN1CCN([C@@H]2c3ccccc3[C@@H]3[C@H](c4ccccc42)C3(F)F)CC1 [Zosuquidar] + CC1(C)CCC(c2ccc(Cl)cc2)=C(CN2CCN(c3ccc(C(=O)NS(=O)(=O)c4ccc(N[C@H](CCN5CCOCC5)CSc5ccccc5)c(S(=O)(=O)C(F)(F)F)c4)cc3)CC2)C1 [Navitoclax] (partner 0.5 µM)
In short: (§1)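 Five library-drug doses in √10 steps were combined with a fixed anchor-drug dose, or a single drug was given alone, by pin tool to lung cancer cell lines in 1536-well plates the day after seeding. Nuclei were stained and counted after 5 days. Relative viability is the nuclei count in treated wells over that in vehicle wells, taken as the median of duplicate plates.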

[1] = compound: COc1cc2nccc(Oc3ccc(NC(=O)C4(C(=O)Nc5ccc(F)cc5)CC4)cc3)c2cc1OC [Cabozantinib] + Cc1cc(Nc2cc(N3CCN(C)CC3)nc(Sc3ccc(NC(=O)C4CC4)cc3)n2)n[nH]1 [Tozasertib] (partner 0.1 µM)
In short: as §1

Zosuquidar + Pemetrexed = compound: O[C@@H](COc1cccc2ncccc12)CN1CCN([C@@H]2c3ccccc3[C@@H]3[C@H](c4ccccc42)C3(F)F)CC1 [Zosuquidar] + Nc1nc2[nH]cc(CCc3ccc(C(=O)N[C@@H](CCC(=O)O)C(=O)O)cc3)c2c(=O)[nH]1 [Pemetrexed] (partner 0.2 µM)
In short: as §1

[2] = compound: COc1cc2nccc(Oc3ccc(NC(=O)C4(C(=O)Nc5ccc(F)cc5)CC4)cc3)c2cc1OC [Cabozantinib] + CC(C)C[C@H](NC(=O)[C@H](Cc1ccccc1)NC(=O)c1cnccn1)B(O)O [Bortezomib] (partner 0.002 µM)
In short: as §1

Cell Line | relative viability (Zosuquidar + Navitoclax; first compound 0.01 µM) | relative viability (Zosuquidar + Navitoclax; first compound 0.03162 µM) | relative viability (Zosuquidar + Navitoclax; first compound 0.1 µM) | relative viability (Zosuquidar + Navitoclax; first compound 0.3162 µM) | relative viability (Zosuquidar + Navitoclax; first compound 1 µM) | relative viability ([1]; first compound 0.02 µM) | relative viability ([1]; first compound 0.06325 µM) | relative viability ([1]; first compound 0.2 µM) | relative viability ([1]; first compound 0.6325 µM) | relative viability ([1]; first compound 2 µM) | relative viability (Zosuquidar + Pemetrexed; first compound 0.01 µM) | relative viability (Zosuquidar + Pemetrexed; first compound 0.03162 µM) | relative viability (Zosuquidar + Pemetrexed; first compound 0.1 µM) | relative viability (Zosuquidar + Pemetrexed; first compound 0.3162 µM) | relative viability (Zosuquidar + Pemetrexed; first compound 1 µM) | relative viability ([2]; first compound 0.02 µM) | relative viability ([2]; first compound 0.06325 µM) | relative viability ([2]; first compound 0.2 µM) | relative viability ([2]; first compound 0.6325 µM) | relative viability ([2]; first compound 2 µM)
SK-MES-1 | 1.19 | 1.18 | 1.09 | 1.25 | 1.25 | 1.09 | 0.991 | 0.999 | 0.927 | 0.753 | 0.957 | 0.952 | 0.85 | 1.07 | 1.04 | – | – | – | – | –
LK-2 | 0.989 | 0.931 | 0.875 | 0.954 | 0.847 | – | 0.169 | – | 0.18 | 0.175 | 0.281 | 0.306 | 0.205 | 0.26 | 0.271 | – | – | – | – | –
NCI-H2170 | 0.651 | 0.626 | 0.557 | 0.673 | 0.571 | 0.738 | 0.8 | 0.733 | 0.748 | 0.734 | 0.283 | 0.263 | 0.263 | 0.269 | 0.255 | – | – | – | – | –
NCI-H1623 | – | – | – | – | – | 0.4 | 0.42 | 0.427 | 0.443 | 0.455 | – | – | – | – | – | – | – | – | – | –
ABC-1 | – | – | – | – | – | 0.194 | 0.195 | 0.265 | 0.194 | 0.218 | – | – | – | – | – | 0.263 | 0.263 | 0.294 | 0.351 | 0.279
IA-LM | 0.803 | 0.83 | 1.02 | 0.848 | 0.753 | – | – | – | – | – | – | – | – | – | – | 0.912 | 0.782 | 0.78 | 0.998 | 0.958
NCI-H1299 | 1.06 | 1.02 | 1.03 | 1.01 | 1.04 | – | – | – | – | – | – | – | – | – | – | 1.01 | 1.03 | 1.03 | 1.01 | 1.05
NCI-H650 | – | – | – | – | – | – | 0.746 | 0.756 | 0.789 | 0.706 | 0.764 | 0.757 | 0.834 | 1.18 | 0.921 | 0.691 | 0.998 | 0.861 | 0.737 | 0.627
NCI-H1792 | 0.603 | 0.621 | 0.53 | 0.635 | 0.359 | – | – | – | – | – | 0.746 | 0.705 | 0.474 | 1.04 | 0.933 | 0.848 | 1.19 | 0.858 | 0.946 | 0.975
SW 900 | – | – | – | – | – | 0.551 | 0.481 | 0.814 | 0.464 | 0.299 | 0.497 | 0.485 | – | 0.514 | 0.498 | – | – | – | – | –
NCI-H1563 | – | – | – | – | – | – | – | – | – | – | 0.623 | 0.786 | 0.679 | 0.729 | 0.743 | 0.92 | 0.875 | 0.904 | 0.824 | 1.08
NCI-H1944 | 1.06 | 1.02 | 1 | 1.18 | 0.945 | 0.275 | 0.274 | 0.238 | 0.257 | 0.238 | 0.583 | 0.585 | 0.604 | 0.678 | 0.665 | – | – | – | – | –
NCI-H661 | – | – | – | – | – | 0.374 | 0.361 | 0.388 | 0.393 | 0.375 | 0.914 | 0.902 | 0.846 | 0.928 | 0.851 | 0.799 | 0.855 | 0.915 | 0.683 | 0.799
NCI-H358 | – | – | – | – | – | 0.106 | 0.0894 | 0.103 | 0.0924 | 0.108 | 0.189 | 0.173 | 0.173 | 0.167 | 0.154 | – | – | – | – | –
NCI-H1395 | 1.11 | 1.08 | 1.12 | 1.28 | 1.15 | 0.796 | 0.779 | 0.794 | 0.756 | 0.719 | 0.718 | 0.983 | – | 1 | 0.811 | – | – | – | – | –
Calu-6 | 0.88 | 0.81 | 0.895 | 0.86 | 0.813 | – | – | – | – | – | – | – | – | – | – | 1.09 | 1.05 | 1.04 | 1.04 | 0.949
NCI-H1793 | 0.407 | 0.444 | – | 0.499 | 0.396 | 0.663 | 0.427 | 0.271 | 0.257 | 0.169 | 0.898 | – | – | 1.01 | 0.832 | – | – | – | – | –
NCI-H727 | 0.426 | 0.528 | 0.328 | 0.454 | 0.391 | 0.53 | 0.777 | 0.513 | 0.513 | 0.554 | – | – | – | – | – | 0.704 | 0.901 | 0.718 | 0.819 | 0.947
EBC-1 | 0.451 | 0.417 | 0.466 | 0.493 | 0.417 | – | – | – | – | – | – | – | – | – | – | 0.673 | 0.484 | 0.221 | 0.245 | 0.173
NCI-H2342 | – | – | – | – | – | 0.656 | 0.516 | 0.553 | 0.478 | 0.401 | 0.682 | 0.785 | 0.649 | 0.899 | 0.818 | – | – | – | – | –
NCI-H1703 | 1.39 | 1.36 | 1.44 | 1.33 | 1.05 | – | – | – | – | – | – | – | – | – | – | 0.243 | 0.237 | 0.235 | 0.194 | 0.154
NCI-H1648 | – | – | – | – | – | 0.704 | 0.658 | 0.51 | 0.59 | 0.385 | 1.57 | 0.99 | 0.568 | 0.717 | 0.627 | – | – | – | – | –
NCI-H522 | – | – | – | – | – | 0.612 | 0.535 | 0.502 | 0.614 | 0.511 | 0.958 | 0.897 | 0.968 | 0.843 | 1.17 | – | – | – | – | –
A549 | 1.16 | 0.892 | 1.16 | 1.23 | 1.24 | – | – | – | – | – | – | – | – | – | – | – | – | – | – | –
LCLC-103H | – | – | – | – | – | 0.552 | 0.471 | 0.474 | 0.486 | 0.391 | 0.495 | 0.489 | 0.453 | 0.46 | 0.46 | 1.09 | 1.12 | 1.14 | 1.03 | 1.03

Reference: the supplement of paper PMC10307832
